{"source": "the OligoGym collection", "molecular_target": "SOD1", "settings": "ASO", "note": "Values joined by “and” are separate entries in the source; they are usually repeats but may differ in a detail not shown here. Identical values can stand only once. After the bases stand the sugars from the 5' end (letter, count) and the backbone: PS all phosphorothioate, else s phosphorothioate and o phosphodiester by linkage. Methylation of C is not given here. e = 2'-O-(2-methoxyethyl) (MOE); k = constrained ethyl (cEt); d = 2'-deoxy (DNA)", "data": [{"sequence": "CCAATTACACCACAAGC (sugars e2 k2 d9 k2 e2, PS)", "values": [{"measurement": "target mRNA inhibition", "setting": "HepG2, 0.1875 µM", "result": 7, "unit": "%"}, {"measurement": "target mRNA inhibition", "setting": "HepG2, 0.75 µM", "result": 32, "unit": "%"}, {"measurement": "target mRNA inhibition", "setting": "HepG2, 3 µM", "result": 77, "unit": "%"}, {"measurement": "target mRNA inhibition", "setting": "HepG2, 4 µM", "result": 73, "unit": "%"}, {"measurement": "target mRNA inhibition", "setting": "HepG2, 12 µM", "result": 96, "unit": "%"}]}, {"sequence": "TCAGTTTCTCACTACAG (sugars e2 k2 d9 k2 e2, PS)", "values": [{"measurement": "target mRNA inhibition", "setting": "HepG2, 5 µM", "result": 43, "unit": "%"}]}, {"sequence": "CTCATAATAAGTGCCAT (sugars e2 k2 d9 k2 e2, PS)", "values": [{"measurement": "target mRNA inhibition", "setting": "HepG2, 5 µM", "result": 44, "unit": "%"}]}, {"sequence": "TAACTGAGTTTTATAAAACT (sugars e5 d10 e5, PS)", "values": [{"measurement": "target mRNA inhibition", "setting": "HepG2, 5 µM", "result": 0, "unit": "%"}]}, {"sequence": "TTAAGTCTGGCAAAATA (sugars e2 k2 d8 k2 e3, PS)", "values": [{"measurement": "target mRNA inhibition", "setting": "HepG2, 5 µM", "result": 27, "unit": "%"}]}, {"sequence": "TACAGCTAGCAGGATAA (sugars e2 k2 d8 k2 e3, PS)", "values": [{"measurement": "target mRNA inhibition", "setting": "HepG2, 0.1875 µM", "result": 35, "unit": "%"}, {"measurement": "target mRNA inhibition", "setting": "HepG2, 0.75 µM", "result": 70, "unit": "%"}, {"measurement": "target mRNA inhibition", "setting": "HepG2, 3 µM", "result": 90, "unit": "%"}, {"measurement": "target mRNA inhibition", "setting": "HepG2, 4 µM", "result": "85% and 77%"}, {"measurement": "target mRNA inhibition", "setting": "HepG2, 12 µM", "result": "91% and 97%"}]}, {"sequence": "CTTCCAAGTGATCATAA (sugars e2 k2 d9 k2 e2, PS)", "values": [{"measurement": "target mRNA inhibition", "setting": "HepG2, 5 µM", "result": 54, "unit": "%"}]}, {"sequence": "AAATCAGTTTCTCACTACAG (sugars e5 d10 e5, PS)", "values": [{"measurement": "target mRNA inhibition", "setting": "HepG2, 5 µM", "result": 0, "unit": "%"}]}, {"sequence": "TTTCCTTCTGCTCGAAA (sugars e3 k2 d7 k2 e3, PS)", "values": [{"measurement": "target mRNA inhibition", "setting": "HepG2, 3 µM", "result": 6, "unit": "%"}]}, {"sequence": "ATCCAAGGGAATGTTTA (sugars e2 k2 d8 k2 e3, PS)", "values": [{"measurement": "target mRNA inhibition", "setting": "HepG2, 4 µM", "result": 35, "unit": "%"}]}, {"sequence": "ATTCACAGGCTTGAATG (sugars e2 k2 d9 k2 e2, PS)", "values": [{"measurement": "target mRNA inhibition", "setting": "HepG2, 5 µM", "result": 29, "unit": "%"}]}, {"sequence": "GACTACATCCAAGGGAA (sugars e2 k2 d9 k2 e2, PS)", "values": [{"measurement": "target mRNA inhibition", "setting": "HepG2, 4 µM", "result": 57, "unit": "%"}]}, {"sequence": "ATGTTTATTGGGCGATC (sugars e3 k2 d7 k2 e3, PS)", "values": [{"measurement": "target mRNA inhibition", "setting": "HepG2, 3 µM", "result": 28, "unit": "%"}]}, {"sequence": "ACAGTGTTTAATGTTTA (sugars e3 k2 d7 k2 e3, PS)", "values": [{"measurement": "target mRNA inhibition", "setting": "HepG2, 0.1875 µM", "result": 35, "unit": "%"}, {"measurement": "target mRNA inhibition", "setting": "HepG2, 0.75 µM", "result": 71, "unit": "%"}, {"measurement": "target mRNA inhibition", "setting": "HepG2, 3 µM", "result": "56% and 79%"}, {"measurement": "target mRNA inhibition", "setting": "HepG2, 12 µM", "result": 82, "unit": "%"}]}, {"sequence": "AACTATACAAATCTTCC (sugars e2 k2 d9 k2 e2, PS)", "values": [{"measurement": "target mRNA inhibition", "setting": "HepG2, 5 µM", "result": 63, "unit": "%"}]}, {"sequence": "ACAAGTTTAATACCCAT (sugars e3 k2 d7 k2 e3, PS)", "values": [{"measurement": "target mRNA inhibition", "setting": "HepG2, 3 µM", "result": 23, "unit": "%"}]}, {"sequence": "CACAGAATCTTCAATAGACA (sugars e5 d10 e5, PS)", "values": [{"measurement": "target mRNA inhibition", "setting": "HepG2, 5 µM", "result": "10% and 14%"}]}, {"sequence": "TGCTTTTTCATGGACCA (sugars e3 k2 d7 k2 e3, PS)", "values": [{"measurement": "target mRNA inhibition", "setting": "HepG2, 3 µM", "result": 51, "unit": "%"}]}, {"sequence": "CATCTGCTTTTTCATGG (sugars e3 k2 d7 k2 e3, PS)", "values": [{"measurement": "target mRNA inhibition", "setting": "HepG2, 3 µM", "result": 70, "unit": "%"}]}, {"sequence": "ATACATTTCTACAGCT (sugars ekddddddddekekee, linkages s1 o1 s8 o3 s2)", "values": [{"measurement": "target mRNA inhibition", "setting": "A431, 0.12 µM", "result": 0, "unit": "%"}, {"measurement": "target mRNA inhibition", "setting": "A431, 0.6 µM", "result": 9, "unit": "%"}, {"measurement": "target mRNA inhibition", "setting": "A431, 3 µM", "result": 0, "unit": "%"}, {"measurement": "target mRNA inhibition", "setting": "A431, 15 µM", "result": 25, "unit": "%"}, {"measurement": "target mRNA inhibition", "setting": "HepG2, 0.222 µM", "result": 43, "unit": "%"}, {"measurement": "target mRNA inhibition", "setting": "HepG2, 0.667 µM", "result": 58, "unit": "%"}, {"measurement": "target mRNA inhibition", "setting": "HepG2, 2 µM", "result": 79, "unit": "%"}, {"measurement": "target mRNA inhibition", "setting": "HepG2, 6 µM", "result": 91, "unit": "%"}]}, {"sequence": "TTTATTGGGCGATCCCA (sugars e2 k2 d8 k2 e3, PS)", "values": [{"measurement": "target mRNA inhibition", "setting": "HepG2, 4 µM", "result": 34, "unit": "%"}]}, {"sequence": "TTTAATACCCATCTGTG (sugars e3 k2 d7 k2 e3, PS)", "values": [{"measurement": "target mRNA inhibition", "setting": "HepG2, 3 µM", "result": 0, "unit": "%"}]}, {"sequence": "AGTTTAATACCCATCTG (sugars e3 k2 d7 k2 e3, PS)", "values": [{"measurement": "target mRNA inhibition", "setting": "HepG2, 3 µM", "result": 10, "unit": "%"}]}, {"sequence": "CATCCAAGGGAATGTTT (sugars e3 k2 d7 k2 e3, PS)", "values": [{"measurement": "target mRNA inhibition", "setting": "HepG2, 3 µM", "result": 16, "unit": "%"}]}, {"sequence": "TATCAGGATACATTTCTACA (sugars e5 d10 e5, PS)", "values": [{"measurement": "target mRNA inhibition", "setting": "HepG2, 0.1875 µM", "result": 13, "unit": "%"}, {"measurement": "target mRNA inhibition", "setting": "HepG2, 0.75 µM", "result": 16, "unit": "%"}, {"measurement": "target mRNA inhibition", "setting": "HepG2, 3 µM", "result": 48, "unit": "%"}, {"measurement": "target mRNA inhibition", "setting": "HepG2, 5 µM", "result": 58, "unit": "%"}, {"measurement": "target mRNA inhibition", "setting": "HepG2, 12 µM", "result": 81, "unit": "%"}]}, {"sequence": "ATGTTTATCAGGATACA (sugars e3 k1 d8 k1 e4, linkages s1 o2 s9 o2 s2)", "values": [{"measurement": "target mRNA inhibition", "setting": "A431, 0.062 µM", "result": 7, "unit": "%"}, {"measurement": "target mRNA inhibition", "setting": "A431, 0.185 µM", "result": 18, "unit": "%"}, {"measurement": "target mRNA inhibition", "setting": "A431, 0.556 µM", "result": 38, "unit": "%"}, {"measurement": "target mRNA inhibition", "setting": "A431, 1.667 µM", "result": 53, "unit": "%"}, {"measurement": "target mRNA inhibition", "setting": "A431, 5 µM", "result": 68, "unit": "%"}, {"measurement": "target mRNA inhibition", "setting": "A431, 15 µM", "result": 79, "unit": "%"}, {"measurement": "target mRNA inhibition", "setting": "SH-SY5Y, 0.062 µM", "result": 4, "unit": "%"}, {"measurement": "target mRNA inhibition", "setting": "SH-SY5Y, 0.185 µM", "result": 30, "unit": "%"}, {"measurement": "target mRNA inhibition", "setting": "SH-SY5Y, 0.556 µM", "result": 51, "unit": "%"}, {"measurement": "target mRNA inhibition", "setting": "SH-SY5Y, 1.667 µM", "result": 68, "unit": "%"}, {"measurement": "target mRNA inhibition", "setting": "SH-SY5Y, 5 µM", "result": 88, "unit": "%"}, {"measurement": "target mRNA inhibition", "setting": "SH-SY5Y, 15 µM", "result": 92, "unit": "%"}]}, {"sequence": "TGACAAGTTTAATACCC (sugars e3 k2 d7 k2 e3, PS)", "values": [{"measurement": "target mRNA inhibition", "setting": "HepG2, 3 µM", "result": 27, "unit": "%"}]}, {"sequence": "AACTCGCTAGGCCACGCCGA (sugars e5 d10 e5, PS)", "values": [{"measurement": "target mRNA inhibition", "setting": "HepG2, 4 µM", "result": 44, "unit": "%"}]}, {"sequence": "CTCTTCATCCTTTGGCC (sugars e3 k2 d7 k2 e3, PS)", "values": [{"measurement": "target mRNA inhibition", "setting": "HepG2, 3 µM", "result": 26, "unit": "%"}]}, {"sequence": "GCCCACTCTGGCCCCAA (sugars e3 k2 d7 k2 e3, PS)", "values": [{"measurement": "target mRNA inhibition", "setting": "HepG2, 3 µM", "result": 22, "unit": "%"}]}, {"sequence": "AGACTACATCCAAGGGA (sugars e2 k2 d8 k2 e3, PS)", "values": [{"measurement": "target mRNA inhibition", "setting": "HepG2, 4 µM", "result": 53, "unit": "%"}]}, {"sequence": "GCGATCCCAATTACACC (sugars e2 k2 d8 k2 e3, PS)", "values": [{"measurement": "target mRNA inhibition", "setting": "HepG2, 4 µM", "result": 31, "unit": "%"}]}, {"sequence": "TTATTCACAGGCTTGAA (sugars e2 k2 d9 k2 e2, PS)", "values": [{"measurement": "target mRNA inhibition", "setting": "HepG2, 5 µM", "result": 30, "unit": "%"}]}, {"sequence": "AAGTCTGGCAAAATACA (sugars e3 k2 d7 k2 e3, PS)", "values": [{"measurement": "target mRNA inhibition", "setting": "HepG2, 3 µM", "result": 10, "unit": "%"}]}, {"sequence": "TGGTCTCCTGAGAGTGAGAT (sugars e5 d10 e5, PS)", "values": [{"measurement": "target mRNA inhibition", "setting": "HepG2, 5 µM", "result": 24, "unit": "%"}]}, {"sequence": "ATAGCCTCATAATAAGTGCC (sugars e5 d10 e5, PS)", "values": [{"measurement": "target mRNA inhibition", "setting": "HepG2, 5 µM", "result": 19, "unit": "%"}]}, {"sequence": "GCCGTCGCCCTTCAGCA (sugars e2 k2 d9 k2 e2, PS)", "values": [{"measurement": "target mRNA inhibition", "setting": "HepG2, 4 µM", "result": 57, "unit": "%"}]}]}
